As a reminder, the IC50 is the point on the concentration scale where inhibition reaches its midpoint. The low end stands for greater potency in that assay, the high end for weaker potency in that assay.

For one data set, the system named is A-549. The experiment in a line: Cytotoxic activity, IC50, A-549. The settings on record: Homo sapiens, A549. The data set is classed as cell-based.
The subject of another data set is HT-29. The experiment in a line: Cytotoxic activity, IC50, HT-29. The following applies: Homo sapiens. It counts as cell-based.
In a further data set the test system is DU-145. Put plainly: Cytotoxic activity, IC50, DU-145. The following applies: Homo sapiens. The data set is classed as cell-based.
For another data set, the system named is P-388. The experiment in a line: Cytotoxic activity, IC50, P-388. The data set is classed as cell-based. The following applies: Mus musculus, P388.
A further data set relates to MEL-28. The experiment in a line: Cytotoxic activity, IC50, MEL-28. The data set is classed as cell-based. The settings on record: Homo sapiens, SK-MEL-28.
The test system of the next data set is RAMOS. The settings on record: ramos cells.

As for `C/C=C/C(=O)NC[C@H]1c2c(c(OC(C)=O)c(C)c3c2OCO3)C[C@H]2[C@H]3c4c(cc(C)c(OC)c4O)C[C@@H]([C@H](C#N)N12)N3C`, the values for the IC50 with A-549, in the data set with HT-29 and in the data set on DU-145 were 0.0008 µM, 0.0001 µM and 0.0008 µM, respectively.

On to `COc1c(C)cc2c(c1O)[C@@H]1[C@@H]3Cc4c(OC(C)=O)c(C)c5c(c4[C@H](CNC(=O)CCc4ccccc4)N3[C@@H](O)[C@H](C2)N1C)OCO5`, for which the half-maximal inhibitory concentration (IC50) with HT-29 and in the data set with DU-145 was 0.0001 µM throughout.

As for `COc1c(C)cc2c(c1O)[C@@H]1[C@@H]3Cc4c(OC(C)=O)c(C)c5c(c4[C@H](CNC(=O)Cc4ccccc4)N3[C@@H](O)[C@H](C2)N1C)OCO5`, the IC50 in the data set with P-388, in the data set on A-549, in the data set on HT-29, in the data set on MEL-28 and in the data set on DU-145 was 0.0007 µM throughout.

As to `COCOc1c(OC)c(C)cc2c1C1C3Cc4c(OC(C)=O)c(C)c5c(c4C(COC(=O)C=Cc4ccccc4)N3C(C#N)C(C2)N1C)OCO5` (centres unmarked), the IC50 in the data set with A-549, in the data set on HT-29, in the data set with MEL-28 and with DU-145 was 0.07 µM in each case.

On to `CCCC(=O)OCC1c2c(c(OC(C)=O)c(C)c3c2OCO3)CC2C3c4c(cc(C)c(OC)c4O)CC(C(C#N)N12)N3C` (centres unmarked), for which the half-maximal inhibitory concentration (IC50) in the data set on A-549, with HT-29 and in the data set on DU-145 was 0.0008 µM in each case.

As for `COc1c(C)cc2c(c1O)C1C3Cc4c(OC(C)=O)c(C)c5c(c4C(COC(=O)CCc4ccccc4)N3C(C#N)C(C2)N1C)OCO5` (centres unmarked), the half-inhibitory concentration (IC50) in the data set on HT-29 and in the data set on DU-145 was 0.0001 µM each time.

Turning to `COc1c(C)cc2c(c1O)C1C3Cc4c(OC(C)=O)c(C)c5c(c4C(COC(=O)C=Cc4ccccc4)N3C(C#N)C(C2)N1C)OCO5` (centres unmarked), the half-maximal inhibitory concentration (IC50) with P-388, with A-549, in the data set with HT-29, with MEL-28 and in the data set on DU-145 was 0.0007 µM in each case.

On to `CCCC(=O)OCC1c2c(c(OC(C)=O)c(C)c3c2OCO3)CC2C3c4c(cc(C)c(OC)c4O)CC(C(O)N12)N3C` (centres unmarked), for which the half-maximal inhibitory concentration (IC50) in the data set with HT-29 and in the data set on DU-145 was 0.0001 µM throughout.

In the case of `COc1c(C)cc2c(c1O)C1C3Cc4c(OC(C)=O)c(C)c5c(c4C(COC(=O)C=Cc4cccc(C(F)(F)F)c4)N3C(O)C(C2)N1C)OCO5` (centres unmarked), the 50% inhibitory concentration (IC50) in the data set with HT-29 and with DU-145 was 0.0001 µM in each case.

On to `COc1c(C)cc2c(c1O)C1C3Cc4c(OC(C)=O)c(C)c5c(c4C(COC(=O)CCc4ccccc4)N3C(O)C(C2)N1C)OCO5` (centres unmarked), for which the IC50 with HT-29 and in the data set with DU-145 was 0.0001 µM each time.

Consider `COc1c(C)cc2c(c1O)C1C3Cc4c(OC(C)=O)c(C)c5c(c4C(COC(=O)C=Cc4ccccc4)N3C(O)C(C2)N1C)OCO5` (centres unmarked), for which the half-inhibitory concentration (IC50) in the data set with A-549, in the data set with HT-29, with MEL-28 and in the data set on DU-145 was 0.0007 µM each time.

With `COc1c(C)cc2c(c1O)C1C3Cc4c(OC(C)=O)c(C)c5c(c4C(CNC(=O)C(CCCNC(=N)N)NC(=O)OC(C)(C)C)N3C(C#N)C(C2)N1C)OCO5` (centres unmarked), the IC50 in the data set with A-549 and with HT-29 was more than 1 µM in each case.

Regarding `COc1c(C)cc2c(c1O)C1C3Cc4c(OC(C)=O)c(C)c5c(c4C(CNC(=O)C(Cc4c[nH]c6ccccc46)NC(=O)OC(C)(C)C)N3C(O)C(C2)N1C)OCO5` (centres unmarked), in the data set on HT-29, the 50% inhibitory concentration (IC50) is 0.012 µM. This counts as double-digit nanomolar.

Compound `COc1c(C)cc2c(c1O)C1C3Cc4c(OC(C)=O)c(C)c5c(c4C(CNC(=O)c4cccnc4Cl)N3C(C#N)C(C2)N1C)OCO5` (centres unmarked) registered an IC50 with HT-29 of 0.00015 µM. Compared with the last compound, the IC50 is about 80-fold lower.

In turn, `COc1c(C)cc2c(c1O)C1C3Cc4c(OC(C)=O)c(C)c5c(c4C(CNC(=O)c4cccnc4Cl)N3C(O)C(C2)N1C)OCO5` (centres unmarked) returned a 50% inhibitory concentration (IC50) in the data set on HT-29 of 0.00015 µM.

Compound `COc1c(C)cc2c(c1O)C1C3Cc4c(OC(C)=O)c(C)c5c(c4C(CNC(=O)CC4CCCCC4)N3C(C#N)C(C2)N1C)OCO5` (centres unmarked) had an IC50 in the data set on HT-29 of 0.0015 µM. Compared with the last compound, the IC50 is about 10-fold higher.

In the data set with HT-29, `COc1c(C)cc2c(c1OC(=O)CC1CCCCC1)C1C3Cc4c(OC(C)=O)c(C)c5c(c4C(CNC(=O)CC4CCCCC4)N3C(C#N)C(C2)N1C)OCO5` (centres unmarked) yielded an IC50 of 0.013 µM.

For the compound `COc1c(C)cc2c(c1O)C1C3Cc4c(OC(C)=O)c(C)c5c(c4C(CNC(=O)CCC4CCCCC4)N3C(C#N)C(C2)N1C)OCO5` (centres unmarked), the IC50 in the data set with HT-29 was 0.0015 µM.

The compound `COc1c(C)cc2c(c1OC(=O)CCC1CCCCC1)C1C3Cc4c(OC(C)=O)c(C)c5c(c4C(CNC(=O)CCC4CCCCC4)N3C(C#N)C(C2)N1C)OCO5` (centres unmarked) came in with an IC50 in the data set with HT-29 of 0.12 µM. This IC50 lies about 80-fold higher than the previous one.

With `COc1c(C)cc2c(c1O)[C@@H]1[C@@H]3Cc4c(OC(C)=O)c(C)c5c(c4[C@H](COC(=O)CCc4ccccc4)N3[C@@H](O)[C@H](C2)N1C)OCO5`, it took 1.86 nM to reach half-maximal inhibition in the data set on RAMOS (IC50).
